In the CheMixHub viscosity set:
Where “and” joins values, the source holds several entries; their conditions need not be identical. Equal entries are not always repeated.

What was measured:
[1] = xn = mol fraction of the nth substance listed

Oc1ccccc1Cl
Settings	viscosity
293.15 K, 101 kPa	4.21 mPa·s
298 K, 101 kPa	3.376 mPa·s
298 K, 101.3 kPa	3.376 mPa·s
298 K, 101.33 kPa	3.36 mPa·s
298.15 K, 101 kPa	3.671 mPa·s and 3.381 mPa·s
303 K, 101 kPa	2.927 mPa·s
303 K, 101.3 kPa	2.927 mPa·s
303.15 K, 101 kPa	3.08 mPa·s and 2.821 mPa·s and 2.998 mPa·s
308 K, 101 kPa	2.532 mPa·s
308 K, 101.3 kPa	2.532 mPa·s
308.15 K, 101 kPa	2.491 mPa·s and 2.358 mPa·s
313 K, 101 kPa	2.191 mPa·s
313 K, 101.3 kPa	2.191 mPa·s
313.15 K, 101 kPa	2.32 mPa·s and 2.32 mPa·s and 2.259 mPa·s
318 K, 101 kPa	1.947 mPa·s
318 K, 101.3 kPa	1.947 mPa·s
318.15 K, 101 kPa	2.038 mPa·s
323.1 K, 101 kPa	2.015 mPa·s
323.15 K, 101 kPa	1.871 mPa·s

CC(C)C(C)O (centres undefined)
101.33 kPa
Settings	viscosity [mPa·s]
303.15 K	3.163
313.15 K	2.185
323.15 K	1.573

CCCCOC(C)=O
viscosity
Settings	293.15 K	298.15 K	308.15 K	313.15 K	318.15 K	323.15 K
100 kPa	0.73 mPa·s	0.683 mPa·s	–	0.55 mPa·s	0.51 mPa·s	0.465 mPa·s
101 kPa	0.724 mPa·s and 0.724 mPa·s	–	–	–	0.524 mPa·s and 0.5262 mPa·s	0.507 mPa·s
101.33 kPa	0.735 mPa·s	–	0.592 mPa·s and 0.593 mPa·s and 0.584 mPa·s	0.557 mPa·s and 0.565 mPa·s	0.524 mPa·s	–

CCCOC(=O)c1ccccc1
viscosity [mPa·s]
Settings	293.15 K	298.15 K	303.15 K	308.15 K	313.15 K	318.15 K	323.15 K
101 kPa	–	2.357	–	1.905	–	1.574	–
101.33 kPa	2.586	–	2.013	–	1.604	–	1.301

C[n+]1ccn(CCO)c1.O=C([O-])C(F)(F)C(F)(F)C(F)(F)C(F)(F)F
101 kPa
Settings	viscosity [mPa·s]
298.15 K	712.8
308.15 K	351.3
318.15 K	190.8

CCCN(CCC)C(C)=O
Settings	viscosity [mPa·s]
298.16 K, 101 kPa	2.204

Clc1ccccc1Cl
viscosity
Settings	298.15 K	303.15 K	308.15 K	313.15 K	318.15 K
100 kPa	–	1.238 mPa·s	1.146 mPa·s	1.054 mPa·s	0.974 mPa·s
101 kPa	1.22 mPa·s	1.129 mPa·s and 1.22 mPa·s	1.058 mPa·s and 1.148 mPa·s	0.9857 mPa·s and 1.054 mPa·s	0.974 mPa·s

OCCc1ccccc1
viscosity
Settings	298.15 K	303.15 K	308.15 K	313.15 K
100 kPa	–	9.05 mPa·s and 9.027 mPa·s	7.653 mPa·s	6.335 mPa·s
101 kPa	10.9 mPa·s	–	–	–

CCCCCCCCCCCCCCCCCCCC
Settings	viscosity [mPa·s]
313.2 K, 101.3 kPa	4.01

CN1CCCN(C)C1=O
viscosity [mPa·s]
Settings	293.15 K	298.15 K	303.15 K	308.15 K	313.15 K	318.15 K	323.15 K
100 kPa	3.514	3.11	2.779	2.501	2.266	2.064	1.891
101 kPa	–	2.95	–	–	–	–	–

C=COC(C)=O
Settings	viscosity [mPa·s]
303.15 K, 101.33 kPa	0.372

CC(C)c1ccccc1
viscosity
Settings	293.15 K	298.15 K	303.15 K	308.15 K	313.15 K	318.15 K	323.15 K
100 kPa	–	0.772 mPa·s	–	0.692 mPa·s	–	0.623 mPa·s	–
101 kPa	0.779 mPa·s	0.7314 mPa·s and 0.731 mPa·s	0.68 mPa·s and 0.6881 mPa·s	0.6366 mPa·s and 0.636 mPa·s and 0.6488 mPa·s	0.608 mPa·s and 0.607 mPa·s and 0.6116 mPa·s	0.5767 mPa·s	0.5447 mPa·s

CCCCCCCC(=O)O
Settings	viscosity [mPa·s]
298.15 K, 101 kPa	5.16

CCCN
Settings	viscosity
293.15 K, 101.3 kPa	0.359 mPa·s
298.15 K, 100 kPa	0.365 mPa·s
298.15 K, 101.3 kPa	0.342 mPa·s
298.15 K, 101.33 kPa	0.356 mPa·s
303.15 K, 101 kPa	0.3468 mPa·s and 0.3479 mPa·s
303.15 K, 101.33 kPa	0.3479 mPa·s and 0.3512 mPa·s
308.15 K, 101 kPa	0.2998 mPa·s
308.15 K, 101.33 kPa	0.328 mPa·s
313.15 K, 101.33 kPa	0.3123 mPa·s
318.15 K, 101.33 kPa	0.291 mPa·s

N#CCCl
101 kPa
Settings	viscosity [mPa·s]
293.15 K	0.938
298.15 K	0.863
303.15 K	0.798
313.15 K	0.714
323.15 K	0.616

Oc1ccccc1Cl + CCOCCO
viscosity [mPa·s], [1], 101 kPa
Settings	x1 = 0.0961	x1 = 0.193	x1 = 0.2907	x1 = 0.3894	x1 = 0.4889	x1 = 0.5893	x1 = 0.6906	x1 = 0.7928	x1 = 0.8959
303.15 K	2.185	2.825	3.45	3.996	4.376	4.53	4.41	4.05	3.486
308.15 K	1.948	2.453	2.949	3.365	3.66	3.784	3.706	3.43	3.005
313.15 K	1.725	2.133	2.524	2.868	3.106	3.215	3.17	2.974	2.664
318.15 K	1.567	1.887	2.19	2.449	2.63	2.724	2.702	2.57	2.341

CCCCCCCCCCCCCCCCCCCC + CCCCCCCCCCCCCCCC
viscosity [mPa·s], [1], 101.3 kPa
Settings	x1 = 0.2	x1 = 0.4	x1 = 0.5	x1 = 0.599	x1 = 0.8
293.2 K	3.875	–	–	–	–
303.2 K	3.045	3.481	3.77	4.065	–
313.2 K	2.459	2.785	3.011	3.223	3.602

CCCCOC(C)=O + Cc1ccccc1C
viscosity [mPa·s], [1], 101 kPa
Settings	298.15 K	308.15 K
x1 = 0.0481	0.751	0.652
x1 = 0.1501	0.735	0.64
x1 = 0.2484	0.722	0.63
x1 = 0.3482	0.71	0.621
x1 = 0.4474	0.7	0.614
x1 = 0.5002	0.696	0.61
x1 = 0.5477	0.692	0.607
x1 = 0.657	0.685	0.602
x1 = 0.7456	0.68	0.599
x1 = 0.8459	0.677	0.596
x1 = 0.9461	0.675	0.594

CCC(CC)CO
Settings	viscosity
298.15 K, 101.33 kPa	5.819 mPa·s and 5.819 mPa·s

CCCCCCCCCCCCCCCCCCCC + CCCCCCCCCC
viscosity [mPa·s], [1], 101.3 kPa
Settings	x2 = 0.201	x2 = 0.4	x2 = 0.5	x2 = 0.6	x2 = 0.8
293.15 K	–	–	–	–	1.56
303.2 K	–	–	2.4	2.01	1.31
313.2 K	3.14	2.38	1.95	1.68	1.12

CCCCOC(C)=O + C1CCCCC1
viscosity [mPa·s], [1], 101 kPa
Settings	298.15 K	308.15 K
x1 = 0.0561	0.854	0.723
x1 = 0.156	0.801	0.676
x1 = 0.2818	0.749	0.631
x1 = 0.4867	0.693	0.585
x1 = 0.4963	0.691	0.584
x1 = 0.5327	0.685	0.579
x1 = 0.5738	0.678	0.575
x1 = 0.6816	0.667	0.568
x1 = 0.7552	0.663	0.568
x1 = 0.8686	0.663	0.575
x1 = 0.9568	0.669	0.586

CC(C)c1ccccc1 + CC(C)(C)O
viscosity [mPa·s], [1], 101 kPa
Settings	x2 = 0.0995	x2 = 0.2007	x2 = 0.3001	x2 = 0.3998	x2 = 0.5009	x2 = 0.6007	x2 = 0.7002	x2 = 0.8005	x2 = 0.9002
303.15 K	0.6893	0.7128	0.7481	0.7954	0.8754	0.9692	1.129	1.415	1.874
308.15 K	0.6458	0.6665	0.6941	0.7344	0.8007	0.8782	1.007	1.232	1.578
313.15 K	0.6059	0.6215	0.6451	0.6782	0.7352	0.798	0.9019	1.08	1.343
318.15 K	0.5703	0.5814	0.6002	0.6279	0.6742	0.7269	0.8117	0.9531	1.153
323.15 K	0.537	0.5452	0.5604	0.5835	0.6218	0.6649	0.7349	0.8485	1.001

C[NH2+]C(C)Cc1ccc2c(c1)OCO2.[Cl-] (centres undefined) + O
viscosity [mPa·s], [1], 100 kPa
Settings	293.15 K	298.15 K	303.15 K	308.15 K	313.15 K
x1 = 0.001729	1.063	0.942	0.842	0.758	0.686
x1 = 0.003622	1.125	0.995	0.888	0.798	0.721
x1 = 0.00541	1.18	1.042	0.929	0.834	0.752
x1 = 0.006269	1.206	1.065	0.949	0.851	0.767
x1 = 0.0072	1.233	1.088	0.969	0.869	0.783

CCCCCCCC(=O)O + CC(C)[C@@H]1CC[C@@H](C)C[C@H]1O
viscosity [mPa·s], [1]
Settings	293.15 K	298 K	298.15 K	303.15 K	308.15 K	313.15 K	318.15 K	323.15 K
100 kPa, x1 = 0.4	19.83	–	15.29	12.01	9.58	7.8	6.43	5.37
101 kPa, x2 = 0.333	–	12	–	–	–	–	–	–

CCCCOC(C)=O + CCCCCCCCC
[1], 298.15 K, 101.3 kPa
Settings	viscosity [mPa·s]
x1 = 0.0459	0.6602
x1 = 0.1339	0.6474
x1 = 0.2324	0.6291
x1 = 0.3814	0.6318
x1 = 0.4218	0.6304
x1 = 0.4836	0.6314
x1 = 0.5989	0.632
x1 = 0.658	0.6382
x1 = 0.7574	0.6466
x1 = 0.8386	0.6563
x1 = 0.9486	0.6723

C1COCOC1
101 kPa
Settings	viscosity [mPa·s]
298.15 K	1.057
313.15 K	0.8452

Oc1ccccc1Cl + CNc1ccccc1
viscosity [mPa·s], [1], 101 kPa
Settings	x1 = 0.1013	x1 = 0.2024	x1 = 0.3005	x1 = 0.4032	x1 = 0.5007	x1 = 0.6027	x1 = 0.7	x1 = 0.7936	x1 = 0.9042
298 K	2.395	2.887	3.546	4.142	4.746	4.883	4.922	4.587	3.898
303 K	2.112	2.493	2.984	3.445	3.801	3.963	3.966	3.715	3.352
308 K	1.84	2.126	2.526	2.863	3.129	3.277	3.305	3.117	2.77
313 K	1.622	1.826	2.115	2.42	2.678	2.75	2.793	2.704	2.506
318 K	1.443	1.598	1.883	2.075	2.302	2.34	2.42	2.342	2.198

CCCCOC(C)=O + CS(C)=O
viscosity [mPa·s], [1], 101.33 kPa
Settings	x2 = 0.074	x2 = 0.1418	x2 = 0.2774	x2 = 0.46	x2 = 0.5396	x2 = 0.6383	x2 = 0.7272	x2 = 0.809	x2 = 0.9021	x2 = 0.9703
293.15 K	0.774	0.789	0.868	1.011	1.098	1.211	1.363	1.527	1.791	2.063
303.15 K	0.678	0.692	0.752	0.879	0.931	1.032	1.146	1.28	1.488	1.697
313.15 K	0.592	0.606	0.662	0.766	0.809	0.889	0.983	1.117	1.258	1.423

Oc1ccccc1Cl + CCC(C)=O
[1], 298.15 K, 101 kPa
Settings	viscosity [mPa·s]
x1 = 0.1005	0.517
x1 = 0.1961	0.7
x1 = 0.3003	0.913
x1 = 0.3994	1.322
x1 = 0.501	1.744
x1 = 0.6001	2.277
x1 = 0.6991	2.736
x1 = 0.8006	3.091
x1 = 0.8991	3.315
